Measurements published in patent US7795261B2, “Substituted 1-piperidin-4-yl-4-pyrrolidin-3-yl-piperazine derivatives and their use as neurokinin antagonists” (Janssen Pharmaceutica NV, priority 2002, dated 2010).

What was measured:
Format in all cases: cell-based
[1] = target: NK1 (Homo sapiens, UniProt P25103); assay: Signal transduction (ST), intracellular Ca++ (FLIPR), NK1 antagonistic activity; settings: read-out: pIC50 NK1 (converted)
Procedure, shortened: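 Confluent cells loaded with 2 μM Fluo3 (1 h, 37 °C, probenecid), preincubated 20 min at RT with antagonist concentration range, then agonist added. Peak Ca++ transient read by FLIPR in Krebs buffer pH 7.4; IC50 by non-linear regression.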

[2] = target: T1, NK2 (Homo sapiens, UniProt P21452); assay: Signal transduction (ST), intracellular Ca++ (FLIPR), NK2; settings: read-out: pIC50 NK2 (converted)
T1 sequence (P21452 1-398): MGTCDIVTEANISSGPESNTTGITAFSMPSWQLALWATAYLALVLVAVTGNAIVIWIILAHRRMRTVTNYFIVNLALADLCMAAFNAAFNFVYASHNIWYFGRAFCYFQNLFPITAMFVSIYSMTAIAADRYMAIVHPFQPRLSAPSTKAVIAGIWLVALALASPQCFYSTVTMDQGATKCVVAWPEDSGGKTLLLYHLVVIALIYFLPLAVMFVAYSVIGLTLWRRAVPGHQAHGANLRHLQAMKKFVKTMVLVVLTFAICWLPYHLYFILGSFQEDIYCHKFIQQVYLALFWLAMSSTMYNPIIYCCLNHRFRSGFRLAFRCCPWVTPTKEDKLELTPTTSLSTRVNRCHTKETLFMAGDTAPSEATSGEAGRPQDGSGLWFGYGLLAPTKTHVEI

[3] = target: T2, NK3 (Homo sapiens, UniProt P29371); assay: Signal transduction (ST), intracellular Ca++ (FLIPR), NK3; settings: read-out: pIC50 NK3 (converted)
T2 sequence (P29371 1-465): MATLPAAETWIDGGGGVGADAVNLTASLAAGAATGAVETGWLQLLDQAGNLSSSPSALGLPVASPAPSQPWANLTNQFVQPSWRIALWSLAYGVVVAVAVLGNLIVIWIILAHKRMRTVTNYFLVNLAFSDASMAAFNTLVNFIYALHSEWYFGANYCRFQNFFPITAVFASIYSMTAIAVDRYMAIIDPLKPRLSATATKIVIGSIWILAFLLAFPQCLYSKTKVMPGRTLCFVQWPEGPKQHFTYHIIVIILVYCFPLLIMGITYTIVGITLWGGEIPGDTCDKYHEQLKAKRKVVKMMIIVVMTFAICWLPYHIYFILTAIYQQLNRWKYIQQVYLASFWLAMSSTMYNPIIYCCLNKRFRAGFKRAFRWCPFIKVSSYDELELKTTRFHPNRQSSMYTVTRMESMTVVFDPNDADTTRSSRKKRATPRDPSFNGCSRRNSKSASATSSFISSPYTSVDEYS

Sequence of NK1 (P25103 whole entry): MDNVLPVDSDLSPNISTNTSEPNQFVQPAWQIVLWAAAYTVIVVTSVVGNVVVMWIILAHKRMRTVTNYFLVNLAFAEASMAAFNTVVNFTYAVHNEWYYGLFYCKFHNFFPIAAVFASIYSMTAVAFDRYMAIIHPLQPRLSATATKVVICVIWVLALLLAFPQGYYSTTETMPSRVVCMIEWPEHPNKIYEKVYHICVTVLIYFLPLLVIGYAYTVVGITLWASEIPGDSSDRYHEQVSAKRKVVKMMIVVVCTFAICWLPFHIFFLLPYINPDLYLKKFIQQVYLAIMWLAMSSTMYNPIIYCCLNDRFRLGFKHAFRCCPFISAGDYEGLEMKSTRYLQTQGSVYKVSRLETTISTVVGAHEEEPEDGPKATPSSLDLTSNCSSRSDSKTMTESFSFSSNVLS

SMILES | IC50 [1] [nM] | IC50 [2] [nM] | IC50 [3] [nM]
O=C(C1CC1)N1CCC(N2CCN([C@H]3CCN(C(=O)c4cc(C(F)(F)F)cc(C(F)(F)F)c4)[C@H](Cc4ccccc4)C3)CC2)C1 (stereo partly drawn) [Compound 72] | 50.1 | 63.1 | 794
O=C(c1cc(C(F)(F)F)cc(C(F)(F)F)c1)N1CC[C@H](N2CCN(C3CCN(S(=O)(=O)c4ccccc4)C3)CC2)C[C@H]1Cc1ccccc1 (stereo partly drawn) [Compound 75] | 25.1 | 1000 | 398
O=C(c1cc(C(F)(F)F)cc(C(F)(F)F)c1)N1CC[C@H](N2CCN(C3CCN(S(=O)(=O)c4cccs4)C3)CC2)C[C@H]1Cc1ccccc1 (stereo partly drawn) [Compound 76] | 20 | 1260 | 200
COC(=O)c1sccc1S(=O)(=O)N1CCC(N2CCN([C@H]3CCN(C(=O)c4cc(C(F)(F)F)cc(C(F)(F)F)c4)[C@H](Cc4ccccc4)C3)CC2)C1 (stereo partly drawn) [Compound 77] | 20 | 2510 | 501
Cc1nc(S(=O)(=O)N2CCC(N3CCN([C@H]4CCN(C(=O)c5cc(C(F)(F)F)cc(C(F)(F)F)c5)[C@H](Cc5ccccc5)C4)CC3)C2)cn1C (stereo partly drawn) [Compound 78] | 31.6 | 398 | 251
Cc1noc(C)c1S(=O)(=O)N1CCC(N2CCN(C3CCN(C(=O)c4cc(C(F)(F)F)cc(C(F)(F)F)c4)C(Cc4ccccc4)C3)CC2)C1 (stereo not drawn) [Compound 79] | 15.8 | 1000 | 501
Cn1cccc1C(=O)CN1CCC(N2CCN([C@H]3CCN(C(=O)c4cc(C(F)(F)F)cc(C(F)(F)F)c4)[C@H](Cc4ccccc4)C3)CC2)C1 (stereo partly drawn) [Compound 103] | 15.8 | 5010 | 398
O=C(C(NCc1ccccc1)c1ccccc1)N1CCC(N2CCN([C@H]3CCN(C(=O)c4cc(C(F)(F)F)cc(C(F)(F)F)c4)[C@H](Cc4ccccc4)C3)CC2)C1 (stereo partly drawn) [Compound 107] | 100 | 3160 | 631
CC(C)(C)OC(=O)N1CCC[C@H]1C(=O)N1CCC(N2CCN([C@H]3CCN(C(=O)c4cc(C(F)(F)F)cc(C(F)(F)F)c4)[C@H](Cc4ccccc4)C3)CC2)C1 (stereo partly drawn) [Compound 115] | 20 | 7940 | 316
CC(C)(C)C(=O)N1CCC(N2CCN(C3CCN(C(=O)c4cc(C(F)(F)F)cc(C(F)(F)F)c4)C(Cc4ccccc4)C3)CC2)C1 (stereo not drawn) [Compound 167] | 7.94 | 2000 | 631
O=C(c1c(Cl)cccc1Cl)N1CCC(N2CCN([C@H]3CCN(C(=O)c4cc(C(F)(F)F)cc(C(F)(F)F)c4)[C@H](Cc4ccccc4)C3)CC2)C1 (stereo partly drawn) [Compound 169] | 12.6 | 2510 | 251
O=C(c1cnccn1)N1CCC(N2CCN(C3CCN(C(=O)c4cc(C(F)(F)F)cc(C(F)(F)F)c4)C(Cc4ccc(Cl)c(Cl)c4)C3)CC2)C1 (stereo not drawn) [Compound 171] | 6.31 | 794 | 251
O=C(C1CCOC1)N1CCC(N2CCN(C3CCN(C(=O)c4cc(C(F)(F)F)cc(C(F)(F)F)c4)C(Cc4ccc(Cl)c(Cl)c4)C3)CC2)C1 (stereo not drawn) [Compound 172] | 7.94 | 794 | 398
O=C(c1ccoc1)N1CCC(N2CCN(C3CCN(C(=O)c4cc(C(F)(F)F)cc(C(F)(F)F)c4)C(Cc4ccc(Cl)c(Cl)c4)C3)CC2)C1 (stereo not drawn) [Compound 173] | 20 | 794 | 251
O=C(c1ccccc1F)N1CCC(N2CCN(C3CCN(C(=O)c4cc(C(F)(F)F)cc(C(F)(F)F)c4)C(Cc4ccc(Cl)c(Cl)c4)C3)CC2)C1 (stereo not drawn) [Compound 174] | 20 | 2000 | 1000
O=C(c1cccs1)N1CCC(N2CCN(C3CCN(C(=O)c4cc(C(F)(F)F)cc(C(F)(F)F)c4)C(Cc4ccc(Cl)c(Cl)c4)C3)CC2)C1 (stereo not drawn) [Compound 175] | 25.1 | 1000 | 398
CC(C(=O)N1CCC(N2CCN(C3CCN(C(=O)c4cc(C(F)(F)F)cc(C(F)(F)F)c4)C(Cc4ccc(Cl)c(Cl)c4)C3)CC2)C1)c1ccccc1 (stereo not drawn) [Compound 176] | 20 | 2510 | 1000

SMILES | IC50 [1] [nM] | IC50 [2] [nM] | IC50 [3] [nM]
O=C(C1CCCCC1)N1CCC(N2CCN([C@H]3CCN(C(=O)c4cc(C(F)(F)F)cc(C(F)(F)F)c4)[C@H](Cc4ccccc4)C3)CC2)C1 (stereo partly drawn) [Compound 178] | 10 | 2000 | 251
CC(C)(C)OC(=O)NC(C)(C)C(=O)N1CCC(N2CCN(C3CCN(C(=O)c4cc(C(F)(F)F)cc(C(F)(F)F)c4)C(Cc4ccccc4)C3)CC2)C1 (stereo not drawn) [Compound 205] | 10 | 3160 | 251
CC(C)(C)OC(=O)N1CCCCC1C(=O)N1CCC(N2CCN(C3CCN(C(=O)c4cc(C(F)(F)F)cc(C(F)(F)F)c4)C(Cc4ccccc4)C3)CC2)C1 (stereo not drawn) [Compound 206] | 10 | 794 | 251
O=C(c1ccoc1)N1CCC(N2CCN(C3CCN(C(=O)c4cc(C(F)(F)F)cc(C(F)(F)F)c4)C(Cc4ccc(F)c(F)c4)C3)CC2)C1 (stereo not drawn) [Compound 226] | 6.31 | 1260 | 501
O=C(c1ccoc1)N1CC[C@H](N2CCN([C@@H]3CCN(C(=O)c4cc(C(F)(F)F)cc(C(F)(F)F)c4)[C@@H](Cc4ccc(Cl)c(Cl)c4)C3)CC2)C1 [Compound 250] | 100 | 6310 | 5010
O=C(c1ccsc1)N1CC[C@H](N2CCN([C@@H]3CCN(C(=O)c4cc(C(F)(F)F)cc(C(F)(F)F)c4)[C@@H](Cc4ccc(Cl)c(Cl)c4)C3)CC2)C1 [Compound 251] | 50.1 | 6310 | 5010
O=C(c1ccccc1Cl)N1CCC(N2CCN(C3CCN(C(=O)c4cc(C(F)(F)F)cc(C(F)(F)F)c4)C(Cc4ccc(F)c(F)c4)C3)CC2)C1 (stereo not drawn) [Compound 255] | 15.8 | 1260 | 398
O=C(c1c(Cl)cccc1Cl)N1CCC(N2CCN(C3CCN(C(=O)c4cc(C(F)(F)F)cc(C(F)(F)F)c4)C(Cc4ccc(F)c(F)c4)C3)CC2)C1 (stereo not drawn) [Compound 256] | 25.1 | 1580 | 398
CC(C)(C)OC(=O)N1CC[C@@H](N2CCN([C@H]3CCN(C(=O)c4cc(C(F)(F)F)cc(C(F)(F)F)c4)[C@H](Cc4ccc(Cl)c(Cl)c4)C3)CC2)C1 [Compound 261] | 31.6 | 1260 | 501
O=C(C1CC1)N1CC[C@@H](N2CCN([C@H]3CCN(C(=O)c4cc(C(F)(F)F)cc(C(F)(F)F)c4)[C@H](Cc4ccc(Cl)c(Cl)c4)C3)CC2)C1 [Compound 263] | 6.31 | 794 | 316
O=C(c1cccs1)N1CC[C@@H](N2CCN([C@H]3CCN(C(=O)c4cc(C(F)(F)F)cc(C(F)(F)F)c4)[C@H](Cc4ccc(Cl)c(Cl)c4)C3)CC2)C1 [Compound 264] | 12.6 | 1580 | 200
O=C(c1c(Cl)cccc1Cl)N1CC[C@@H](N2CCN([C@H]3CCN(C(=O)c4cc(C(F)(F)F)cc(C(F)(F)F)c4)[C@H](Cc4ccc(Cl)c(Cl)c4)C3)CC2)C1 [Compound 265] | 20 | 1580 | 158
O=C(c1ccccc1Cl)N1CC[C@@H](N2CCN([C@H]3CCN(C(=O)c4cc(C(F)(F)F)cc(C(F)(F)F)c4)[C@H](Cc4ccc(Cl)c(Cl)c4)C3)CC2)C1 [Compound 266] | 7.94 | 1000 | 316
O=C(c1ccco1)N1CC[C@@H](N2CCN([C@H]3CCN(C(=O)c4cc(C(F)(F)F)cc(C(F)(F)F)c4)[C@H](Cc4ccc(Cl)c(Cl)c4)C3)CC2)C1 [Compound 267] | 7.94 | 631 | 200
O=C(c1cc(C(F)(F)F)cc(C(F)(F)F)c1)N1CC[C@H](N2CCN([C@@H]3CCN(S(=O)(=O)c4cccs4)C3)CC2)C[C@H]1Cc1ccc(Cl)c(Cl)c1 [Compound 268] | 20 | 251 | 1000
N#Cc1ccc(C(=O)N2CCC(N3CCN([C@H]4CCN(C(=O)c5cc(C(F)(F)F)cc(C(F)(F)F)c5)[C@H](Cc5ccccc5)C4)CC3)C2)cc1 (stereo partly drawn) [Compound 271] | 6.31 | 5010 | 2000
O=C(C(O)c1ccccc1)N1CCC(N2CCN([C@H]3CCN(C(=O)c4cc(C(F)(F)F)cc(C(F)(F)F)c4)[C@H](Cc4ccccc4)C3)CC2)C1 (stereo partly drawn) [Compound 275] | 10 | 2510 | 5010
